Source: patent US5354862A, “Preparation and the use of halopropargylated cyclic quaternary ammonium compounds as antimicrobial agents” (Rohm and Haas Company, priority 1993, dated 1994)
Converted amounts (≈) assume the structure as drawn. Like-named read-outs stand apart in the source and are kept apart here.

Tests used:
Pseudomonas aeruginosa = assay: Broth two-fold serial dilution MIC test; assay type: cell-based, Pseudomonas aeruginosa (ATCC 15442)
How it was run: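 Broth two-fold serial dilution MIC (500 to 0.25 ppm) was run against Pseudomonas aeruginosa, with compound from 1% stock in acetone/methanol/water 5:3:2. Vessels inoculated with standardized broth-grown cells were incubated, then scored for growth. MIC is the lowest concentration giving complete growth inhibition.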

Escherichia coli = assay: Broth two-fold serial dilution MIC test; assay type: cell-based, Escherichia coli (ATCC 11229); details: Table 2, Ecol
How it was run: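 Broth two-fold serial dilutions ran from 500 down to 0.25 ppm, prepared from a stock in acetone/methanol/water (5:3:2). Each tube received a standardized bacterial suspension and was incubated at a temperature suited to the species. MIC is the lowest concentration giving complete growth inhibition.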

Staphylococcus aureus = assay: Broth two-fold serial dilution MIC test; assay type: cell-based, Staphylococcus aureus (ATCC 6538)
How it was run: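 Broth two-fold serial dilution from 500 ppm down to 0.25 ppm, compound delivered from acetone/methanol/water stock, inoculated with standardized cell suspension and incubated at an organism-appropriate temperature. MIC is the lowest concentration giving complete growth inhibition.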

Aspergillus niger = assay: Broth two-fold serial dilution MIC test; assay type: cell-based, Aspergillus niger (ATCC 6275)
How it was run: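 Two-fold broth serial dilution from 500 ppm down to 0.25 ppm, compound stock in acetone/methanol/water 5:3:2. Vessels inoculated with standardized spore suspension harvested from agar slants, incubated at a species-appropriate temperature, then scored for growth/no growth. MIC is the lowest concentration giving complete growth inhibition.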

Enterobacter aerogenes = assay: MIC test, side-by-side comparison; assay type: cell-based; details: Table 4 side-by-side, E. Aerogenes; for MIC: Klebsiella aerogenes
From the text: (§1) A minimum inhibitory concentration (MIC) value is obtained using a broth, two-fold serial dilution test performed as follows: A stock solution or dispersion of the test compound, typically at a concentration of 1%, is made in a 5:3:2 solvent solution of acetone. methanol, and water. A volume of the stock solution is dispensed into culture media to give an initial starting test concentration of 500 ppm compound.
(§2) When the test is ready to be done, each vessel in the dilution series, except the first vessel, contains an equal volume of compound free broth. The first vessel contains twice the volume of broth with the starting concentration of test compound. One half of the broth from the first vessel is transferred to the second vessel- After being mixed, one half the resulting volume is removed from the second vessel and transferred to the third vessel. The entire cycle is repeated sufficiently to give a series of concentrations amounting to 500, 250, 125, 63, 31, 16, 8, and 4, 2, 1, 0.5, 0.25 ppm respectively.
(§3) Each vessel is then inoculated with a cell suspension of the appropriate test organism. Bacteria are grown in broth, fungi on agar slants for a time and at a temperature appropriate to the species being tested, and algae are a mixture of green algae and blue-green bacteria grown in a nutrient media. At the end of the growth period, in the case of bacteria, the broth is vortexed to disperse the cells.
(§4) In the case of fungi, the spores are harvested by pipetting water onto the slant and dislodging the spores with a sterile loop. The cell/spore suspension is standardized by controlling incubation time, temperature, and the volume of the diluent. The suspension is then used to inoculate the vessels containing the broth compound.
(§5) The vessels are then incubated at the appropriate temperature. After the incubation, the vessels are examined for growth/no growth. The minimum inhibitory concentration (MIC) is defined as the lowest concentration of compound that results in complete inhibition of growth of the test organism.
(§6) These five compounds were tested side-by-side against six organisms, Pseudomonas aeruginosa (P. aeruginosa), Klebsiella pneurnoniae (K. pneumoniae), Enterobacter aerogenes (E. aerogenes), Proteus mirabilis (P. mirabilis), Staphylococcus aureus (S. aureus), and Aspergillus niger (A. niger). The MIC tests were performed as in example 6.

Klebsiella pneurnoniae = assay: MIC test, side-by-side comparison; assay type: cell-based; details: for MIC: read-out: MIC Values
From the text: as §1, §2, §3, §4, §5, §6

Proteus mirabilis = assay: MIC test, side-by-side comparison; assay type: cell-based; details: Table 4 side-by-side, P. mirabilis; for MIC: Proteus mirabilis
From the text: as §1, §2, §3, §4, §5, §6

[1] = Pseudomonas aeruginosa, Table 4 side-by-side, P. aeruginosa, read-out: MIC Values
[2] = Staphylococcus aureus, Table 4 side-by-side, S. aureus, read-out: MIC Values
[3] = Aspergillus niger, Table 4 side-by-side, A. niger, read-out: MIC Values

`CCCCCCCCCCCCCC[N+]1(CC#CI)CCCCC1` [Compound 25, 1-(tetradecyl)-1-(3-iodopropargyl)-piperidinium 4-methylbenzenesulfonate] was tested, and the MIC (Pseudomonas aeruginosa; [1]) was 8 µg/mL, the MIC (Pseudomonas aeruginosa; Table 2, Psae, M9G media) was 8 ppm and the MIC (Pseudomonas aeruginosa; Table 2, Psae, TSB media) was 2 ppm. The MIC (Escherichia coli; M9G media) was 2 ppm, the MIC (Escherichia coli; TSB media) was 16 ppm and the MIC (Staphylococcus aureus; [2]) was 0.5 µg/mL. It also gave an MIC (Staphylococcus aureus; Table 2, Saur, M9G media) of 0.25 ppm, an MIC (Staphylococcus aureus; Table 2, Saur, TSB media) of 0.25 ppm and an MIC (Aspergillus niger; [3]) of 8 µg/mL. It also gave an MIC (Aspergillus niger; Table 2, Anig, TSB media) of 8 ppm, an MIC (Enterobacter aerogenes) of 1 µg/mL and an MIC (Klebsiella pneurnoniae) of 4 µg/mL. It also gave an MIC (Proteus mirabilis) of 4 µg/mL.

Work on `CCCCCCCCCCCCCC[N+]1(CC#CI)CCOCC1` [Compound 41, 4-tetradecyl-4-(3-iodoprolyargyl)-morpholinium benzenesulfonate] yielded an MIC (Pseudomonas aeruginosa; [1]) of 8 µg/mL, an MIC (Pseudomonas aeruginosa; Table 2, Psae, M9G media) of 2 ppm and an MIC (Pseudomonas aeruginosa; Table 2, Psae, TSB media) of 4 ppm. The MIC (Escherichia coli; M9G media) was less than 0.25 ppm, the MIC (Escherichia coli; TSB media) was less than 0.25 ppm and the MIC (Staphylococcus aureus; [2]) was 0.5 µg/mL. The MIC (Staphylococcus aureus; Table 2, Saur, M9G media) was less than 0.25 ppm, the MIC (Staphylococcus aureus; Table 2, Saur, TSB media) was 0.5 ppm and the MIC (Aspergillus niger; [3]) was 8 µg/mL. The MIC (Aspergillus niger; Table 2, Anig, TSB media) was 2 ppm, the MIC (Enterobacter aerogenes) was 2 µg/mL and the MIC (Klebsiella pneurnoniae) was 4 µg/mL. For the same compound, the MIC (Proteus mirabilis) was 4 µg/mL.

In the case of `CCCCCCCCCCCCCC[N+]1(CC#CI)CCOCC1` [Compound 42, 4-tetradecyl-4-(3-iodopropargyl)-morpholinium methanesulfonate], the MIC (Pseudomonas aeruginosa; Table 2, Psae, M9G media) is reported as 1 ppm, the MIC (Pseudomonas aeruginosa; Table 2, Psae, TSB media) is reported as 4 ppm and the “MIC Values” (Pseudomonas aeruginosa; Table 4 side-by-side, P. aeruginosa) is reported as 16 ppm. For the same compound, the MIC (Escherichia coli; M9G media) was less than 0.25 ppm, the MIC (Escherichia coli; TSB media) was less than 0.25 ppm and the MIC (Staphylococcus aureus; Table 2, Saur, M9G media) was less than 0.25 ppm. The MIC (Staphylococcus aureus; Table 2, Saur, TSB media) was 0.5 ppm, the “MIC Values” (Staphylococcus aureus; Table 4 side-by-side, S. aureus) was 1 ppm and the MIC (Aspergillus niger; Table 2, Anig, TSB media) was 1 ppm. For the same compound, the “MIC Values” (Aspergillus niger; Table 4 side-by-side, A. niger) was 8 ppm, the “MIC Values” (Enterobacter aerogenes) was 1 ppm and the “MIC Values” (Klebsiella pneurnoniae; Table 4 side-by-side, K. Pneumoniae) was 4 ppm. For the same compound, the “MIC Values” (Proteus mirabilis) was 4 ppm.

`IC#CCN1CCCCC1` [Compound J1, N-(3-iodo-2-propynyl)-piperidine, reference compound] showed an MIC (Pseudomonas aeruginosa; [1]) greater than 500 µg/mL, an MIC (Staphylococcus aureus; [2]) of 125 µg/mL (≈ 502 µM) and an MIC (Aspergillus niger; [3]) of 16 µg/mL (≈ 64.2 µM). For the same compound, the MIC (Enterobacter aerogenes) was 32 µg/mL (≈ 128 µM), the MIC (Klebsiella pneurnoniae) was 125 µg/mL (≈ 502 µM) and the MIC (Proteus mirabilis) was 125 µg/mL (≈ 502 µM).

For `IC#CCN1CCOCC1` [Compound J2, N-(3-iodo-2-propynyl)-morpholine, reference compound], the MIC (Pseudomonas aeruginosa; [1]) was greater than 500 µg/mL, the MIC (Staphylococcus aureus; [2]) was 250 µg/mL (≈ 996 µM) and the MIC (Aspergillus niger; [3]) was 8 µg/mL (≈ 31.9 µM). The MIC (Enterobacter aerogenes) was 250 µg/mL (≈ 996 µM), the MIC (Klebsiella pneurnoniae) was 500 µg/mL (≈ 1990 µM) and the MIC (Proteus mirabilis) was 500 µg/mL (≈ 1990 µM).
